Values quoted from earlier work as cited in paper PMC11938273 (Journal of Chemical Information and Modeling, 2025).

Settings: in vivo; cited from earlier work

| Compound | CNS status |
| --- | --- |
| Cc1ccc(-c2cc(C(F)(F)F)nn2-c2ccc(S(N)(=O)=O)cc2)cc1 [Celecoxib, 4-[5-(4-Methylphenyl)-3-(trifluoromethyl)-1H-pyrazol-1-yl]benzenesulfonamide] | Negative |
| CN/C(=N/CCSCc1nc[nH]c1C)NC#N [Cimetidine, 1-Cyano-2-methyl-3-(2-{[(4-methyl-1H-imidazol5-yl)methyl]sulfanyl}ethyl)guanidine] | Efflux transporter substrate |
| COc1ccc(OC)c(CN(C(C)=O)c2cc(F)ccc2Oc2ccccc2)c1 [DAA1106, N-(2,5-dimethoxybenzyl)-N-(5-fluoro-2-phenoxyphenyl)acetamide] | Positive |
| CN(C)Cc1ccccc1Sc1ccc(C#N)cc1N [DASB, 3-Amino-4-((2-((dimethylamino)methyl)phenyl)thio)benzonitrile] | Positive |
| COc1cccc2c1C(=O)c1c(O)c3c(c(O)c1C2=O)C[C@@](O)(C(C)=O)C[C@@H]3O[C@H]1C[C@H](N)[C@H](O)[C@H](C)O1 [Daunorubicin, (1S,3S)-3-Acetyl-3,5,12-trihydroxy-10-methoxy-6,11-dioxo-1,2,3,4,6,11-hexahydro-1-tetracenyl 3-amino-2,3,6-trideoxy-α-L-lyxo-hexopyranoside] | Efflux transporter substrate |
| COc1cccc2c1C(=O)c1c(O)c3c(c(O)c1C2=O)C[C@@](O)(C(=O)CO)C[C@@H]3O[C@H]1C[C@H](N)[C@H](O)[C@H](C)O1 [Doxorubicin, (1S,3S)-3-Glycoloyl-3,5,12-trihydroxy-10-methoxy-6,11-dioxo-1,2,3,4,6,11-hexahydro-1-tetracenyl 3-amino-2,3,6-trideoxy-α-L-lyxo-hexopyranoside] | Efflux transporter substrate |
| CCN(CC)C(=O)/C(C#N)=C/c1cc(O)c(O)c([N+](=O)[O-])c1 [Entacapone, (2E)-2-Cyano-3-(3,4-dihydroxy-5-nitrophenyl)-N,N-diethylacrylamide] | Negative |
| CCN1CCC[C@H]1CNC(=O)c1cc(I)cc(OC)c1OC [Epidepride, (S)-N-((1-ethylpyrrolidin-2-yl)methyl)-5-iodo-2,3-dimethoxybenzamide] | Positive |
| COc1cccc2c1C(=O)c1c(O)c3c(c(O)c1C2=O)C[C@@](O)(C(=O)CO)C[C@@H]3O[C@H]1C[C@H](N)[C@@H](O)[C@H](C)O1 [Epirubicin, (1S,3S)-3-Glycoloyl-3,5,12-trihydroxy-10-methoxy-6,11-dioxo-1,2,3,4,6,11-hexahydro-1-tetracenyl 3-amino-2,3,6-trideoxy-α-L-arabino-hexopyranoside] | Efflux transporter substrate |
| C#Cc1cccc(Nc2ncnc3cc(OCCOC)c(OCCOC)cc23)c1 [Erlotinib, N-(3-Ethynylphenyl)-6,7-bis(2-methoxyethoxy)-4-quinazolinamine] | Efflux transporter substrate |
| CCOC(=O)c1cncn1[C@H](C)c1ccccc1 [Etomidate, (R)-ethyl 1-(1-phenylethyl)-1H-imidazole-5-carboxylate] | Positive |
| COc1cc([C@@H]2c3cc4c(cc3[C@@H](O[C@@H]3O[C@@H]5CO[C@@H](C)O[C@H]5[C@H](O)[C@H]3O)[C@H]3COC(=O)[C@H]23)OCO4)cc(OC)c1O [Etoposide, (5S,5aR,8aR,9R)-9-(4-Hydroxy-3,5-dimethoxyphenyl)-8-oxo-5,5a,6,8,8a,9-hexahydrofuro[3′,4′:6,7]naphtho[2,3-d][1,3]dioxol-5-yl 4,6-O-[(1R)-ethylidene]-β-D-glucopyranoside] | Efflux transporter substrate |
| Cc1ccc([C@H]2C[C@@H]3CC[C@H]([C@H]2C(=O)OCCF)N3C/C=C/I)cc1 [FE-PE2i, 2-fluoroethyl (1R,2S,3S,5S)-8-((E)-3-iodoallyl)-3-(p-tolyl)-8-azabicyclo[3.2.1]octane-2-carboxylate] | Positive |
| CCSC(=O)c1c(CC)nc(-c2ccccc2)c(C(=O)OCC[18F])c1CC [FE@SUPPY, 5-(2-[18F]fluoroethyl)2,4-diethyl-3-(ethylsulfanylcarbonyl)-6-phenylpyridine-5-carboxylate] | Negative |
| C=CCN1CCC[C@H]1CNC(=O)c1cc(CCCF)cc(OC)c1OC [Fallypride, (S)-N-((1-allylpyrrolidin-2-yl)methyl)-1-(5-(3-fluoropropyl)-2,3-dimethoxyphenyl)ethenamine] | Positive |
| CN1Cc2c(C(=O)OCCF)ncn2-c2ccc(F)cc2C1=O [Fluoroethylflumazenil (FFMZ), 2-Fluoroethyl 8-fluoro-5-methyl-6-oxo-5,6-dihydro-4H-benzo [f]imidazo[1,5-a] [1, 4]diazepine-3-carboxylate] | Positive |
| O=[N+]([O-])c1nccn1CC(O)CF (stereo not drawn) [Fluoromisonidazole (FMISO), 1-Fluoro-3-(2-nitro-1H-imidazol-1-yl)propan-2-ol] | Positive |
| CNc1ccc(-c2nc3ccc(O)cc3s2)cc1F [Flutemetamol, 2-(3-fluoro-4-(methylamino)phenyl)benzo[d]thiazol-6-ol] | Positive |

| Compound | CNS status |
| --- | --- |
| C[C@]12CC[C@@H]3c4ccc(O)cc4C[C@@H](CCCCCCCCC[S+]([O-])CCCC(F)(F)C(F)(F)F)[C@H]3[C@@H]1CC[C@@H]2O (stereo partly drawn) [Fulvestrant, (7α,17β)-7-{9-[(4,4,5,5,5-Pentafluoropentyl)sulfinyl]nonyl}estra-1(10),2,4-triene-3,17-diol] | Negative |
| COC(=O)N1CCN(C(=O)Cc2ccc(Cl)c(Cl)c2)[C@H](CN2CCCC2)C1 [GR89696, (R)-methyl 4-(2-(3,4-dichlorophenyl)acetyl)-3-(pyrrolidin-1-ylmethyl)piperazine-1-carboxylate] | Positive |
| CCC1=C(C)CN(C(=O)NCCc2ccc(S(=O)(=O)NC(=O)N[C@H]3CC[C@H](C)CC3)cc2)C1=O [Glimepiride, 3-Ethyl-4-methyl-N-[2-(4-{[(trans-4-methylcyclohexyl)carbamoyl]sulfamoyl}phenyl)ethyl]-2-oxo-2,5-dihydro-1H-pyrrole-1-carboxamide] | Negative |
| CCOc1ccc(-c2nc3cc(-c4nc5cc(N6CCN(C)CC6)ccc5[nH]4)ccc3[nH]2)cc1 [Hoechst 33342, 2′-(4-Ethoxyphenyl)-5-(4-methyl-1-piperazinyl)-1H,1′H-2,5′-bibenzimidazole] | Efflux transporter substrate |
| COC(=O)[C@H]1[C@@H](c2ccc(I)cc2)C[C@@H]2CC[C@H]1N2C/C=C/I [IPCIT, (1R,2S,3S,5S)-methyl 8-((E)-3-iodoallyl)-3-(4-iodophenyl)-8-azabicyclo[3.2.1]octane-2-carboxylate] | Positive |
| CCC(C)n1ncn(-c2ccc(N3CCN(c4ccc(OC[C@H]5CO[C@](Cn6cncn6)(c6ccc(Cl)cc6Cl)O5)cc4)CC3)cc2)c1=O (stereo partly drawn) [Itraconazole, 2-sec-Butyl-4-{4-[4-(4-{[(2R,4S)-2-(2,4-dichlorophenyl)-2-(1H-1,2,4-triazol-1-ylmethyl)-1,3-dioxolan-4-yl]methoxy}phenyl)-1-piperazinyl]phenyl}-2,4-dihydro-3H-1,2,4-triazol-3-one] | Negative |
| COC(=O)c1cnc2n1CCc1ccccc1C2=C1CCN(CCc2ccc(OCc3ccc4ccccc4n3)cc2)CC1 [Laniquidar, methyl 11-(1-(4-(quinolin-2-ylmethoxy)phenethyl)piperidin-4-ylidene)-6,11-dihydro-5H-benzo[d]imidazo[1,2-a]azepine-3-carboxylate] | Efflux transporter substrate |
| CC#CCn1c(N2CCC[C@@H](N)C2)nc2c1c(=O)n(Cc1nc(C)c3ccccc3n1)c(=O)n2C [Linagliptin, 8-(3-Amino-1-piperidinyl)-7-(2-butyn-1-yl)-3-methyl-1-[(4-methyl-2-quinazolinyl)methyl]-3,7-dihydro-1H-purine-2,6-dione] | Negative |
| CNCC(O)CCN1c2ccccc2N(c2ccccc2)S1(=O)=O (stereo not drawn) [Me@HAPTHI, 4-(2,2-Dioxido-3-phenyl-2,1,3-benzothiadiazol-1(3H)-yl)-1-(methylamino)-2-butanol] | Negative |
| O=S(=O)(O)CCS [Mesna (Coenzyme M), 2-mercaptoethane sulfonic acid] | Negative |
| COC(=O)c1cncn1[C@H](C)c1ccccc1 [Metomidate, (R)-methyl 1-(1-phenylethyl)-1H-imidazole-5-carboxylate] | Positive |
| Cn1c2c(c3ccccc31)C[C@@]1(O)C3Cc4ccc(O)c5c4C1(CCN3CC1CC1)[C@H]2O5 (stereo partly drawn) [N-Methylnaltrinidole, (8aS,14bR)-7-(cyclopropylmethyl)-14-methyl-5,6,7,8,8a,9,14, 14b-octahydro-4,8-methanobenzofuro[2,3-a]pyrido [4,3-b]carbazole-1,8a-diol] | Positive |
| Cc1c(O)cccc1C(=O)N[C@@H](CSc1ccccc1)[C@H](O)CN1C[C@H]2CCCC[C@H]2C[C@H]1C(=O)NC(C)(C)C [Nelfinavir, (3S,4aS,8aS)-2-[(2R,3R)-2-Hydroxy-3-[(3-hydroxy-2-methylbenzoyl)amino]-4-(phenylsulfanyl)butyl]-N-(2-methyl-2-propanyl)decahydro3-isoquinolinecarboxamide] | Efflux transporter substrate |
| CN(C)C(=O)Oc1cccc([N+](C)(C)C)c1 [Neostigmine, 3-[(Dimethylcarbamoyl)oxy]-N,N,N-trimethylanilinium] | Negative |
| COC(=O)C1=C(C)NC(C)=C(C(=O)OCCN(C)Cc2ccccc2)C1c1cccc([N+](=O)[O-])c1 (stereo not drawn) [Nicardipine, 2-[Benzyl(methyl)amino]ethyl methyl 2,6-dimethyl-4-(3-nitrophenyl)-1,4-dihydro-3,5-pyridinedicarboxylate] | Efflux transporter substrate |
| Fc1ncccc1OCC1C=CCN1 (stereo not drawn) [Nifene, 3-((2,5-dihydro-1H-pyrrol-2-yl)methoxy)-2-fluoropyridine] | Positive |
| Cc1nccn1CC1CCc2c(c3ccccc3n2C)C1=O (stereo not drawn) [Ondansetron, 9-Methyl-3-[(2-methyl-1H-imidazol-1-yl)methyl]-1,2,3,9-tetrahydro-4H-carbazol-4-one] | Efflux transporter substrate |
| COC(=O)[C@H]1[C@@H](c2ccc(C)cc2)C[C@@H]2CC[C@H]1N2C/C=C/I [PE2i, (1R,2S,3S,5S)-methyl 8-((E)-3-iodoallyl)-3-(p-tolyl)-8-azabicyclo[3.2.1]octane-2-carboxylate] | Positive |
